Source: patent US20240287138A1, “CYCLIC PEPTIDES FOR INHIBITING TNF RECEPTOR 1 ACTIVITY” (Merck Sharp & Dohme LLC, priority 2023, published 2024)
Numbered stars: 1 amine (or outer) side, 2 acyl side, 3 side chain; on linkers, the order of the positions; unused ones are H or OH. Bridge positions count the residues as written; N and C are the ends. Square brackets hold non-standard residues; d marks the D form. Peptide text beside a SMILES is read from it. Trp(βS-Me,7-OMe) = COc1cccc2c([C@H](C)[C@H](N)C(=O)O)c[nH]c12; X34 = O=C([C@H](Cc1c[nH]c2c(Cl)c(F)ccc12)N[*:1])[*:2]; Phe(4-NHCONH2) = NC(=O)Nc1ccc(C[C@H](N)C(=O)O)cc1; Trp(7-CN) = N#Cc1cccc2c(C[C@H](N)C(=O)O)c[nH]c12; Trp(7-Cl) = N[C@@H](Cc1c[nH]c2c(Cl)cccc12)C(=O)O; Phe(4-CONH2) = NC(=O)c1ccc(C[C@H](N)C(=O)O)cc1; Phe(4-COOH) = N[C@@H](Cc1ccc(C(=O)O)cc1)C(=O)O; 4Pal(3S-Me) = C[C@@H](c1ccncc1)[C@H](N)C(=O)O; X1 = O=C([C@@H]1CC[C@H](N[*:1])C1)[*:2]; Pip(4-aza) = O=C(O)[C@@H]1CNCCN1; 4Pal = N[C@@H](Cc1ccncc1)C(=O)O; NMeE = CN[C@@H](CCC(=O)O)C(=O)O; dHyp = O=C(O)[C@H]1C[C@H](O)CN1; Ahp(2) = CCCCC[C@H](N)C(=O)O; NMeS = CN[C@@H](CO)C(=O)O; αMeS = C[C@](N)(CO)C(=O)O; Nle = CCCC[C@H](N)C(=O)O; Sar = CNCC(=O)O

Tests used:
[1] = target: T1, human TNFR1 extracellular domain (ECD) protein (Homo sapiens, UniProt P19438); experiment: SPR binding affinity to captured human TNFR1 ECD
T1 construct: HRV 3C protease cleavage site (C); 6His (C, cleaved yes); made in house; host or cells: Sf21 insect cells (baculovirus), secreted
T1 sequence (P19438 30-211): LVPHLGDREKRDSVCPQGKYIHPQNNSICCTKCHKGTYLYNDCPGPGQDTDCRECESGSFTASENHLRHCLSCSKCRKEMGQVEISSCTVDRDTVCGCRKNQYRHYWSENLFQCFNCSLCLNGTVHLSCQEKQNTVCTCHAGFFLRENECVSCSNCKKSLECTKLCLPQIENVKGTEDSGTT
Procedure, shortened: (§1)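 Biotinylated human TNFR1 or TNFR2 ECD (C-terminal Avi-tag, Sf21-expressed) captured on a regenerable streptavidin chip; peptide analytes flowed in 10 mM HEPES pH 7.4, 150 mM NaCl, 3 mM EDTA, 0.05% P20, 2% DMSO. kon and koff measured; affinity calculated from the rate constants.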

[2] = target: T2, human TNFR2 ECD protein (Homo sapiens, UniProt P20333); experiment: SPR off-target binding (selectivity) to human TNFR2 ECD
T2 construct: HRV 3C protease cleavage site (C); 6His (C, cleaved yes); made in house; host or cells: Sf21 insect cells (baculovirus), secreted
T2 sequence (P20333 23-257): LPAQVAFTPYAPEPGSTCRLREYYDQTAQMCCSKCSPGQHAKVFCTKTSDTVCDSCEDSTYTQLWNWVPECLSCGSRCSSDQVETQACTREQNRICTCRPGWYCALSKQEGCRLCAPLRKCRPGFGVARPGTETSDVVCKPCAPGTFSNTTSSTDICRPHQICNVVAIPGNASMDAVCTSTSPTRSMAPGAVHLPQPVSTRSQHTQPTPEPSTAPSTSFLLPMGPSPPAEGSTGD
Procedure, shortened: as §1

[3] = target: T3, human soluble TNFR1 (sTNFR1) (Homo sapiens, UniProt P19438); experiment: Human sTNFR1-peptide displacement assay (LanthaScreen Eu TR-FRET binding assay)
T3 construct: made in house; host or cells: Sf21 (baculovirus)
T3 sequence (P19438 with tags, fused parts or gaps): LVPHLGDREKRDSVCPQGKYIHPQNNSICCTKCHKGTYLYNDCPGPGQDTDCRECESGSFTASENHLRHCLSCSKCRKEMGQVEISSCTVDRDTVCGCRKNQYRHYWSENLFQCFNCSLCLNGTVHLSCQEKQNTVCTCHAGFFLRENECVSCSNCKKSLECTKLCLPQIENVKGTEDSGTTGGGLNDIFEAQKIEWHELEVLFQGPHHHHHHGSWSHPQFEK
Procedure, shortened: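 Readout is the 665/615 nm TR-FRET ratio (Eu anti-His donor, streptavidin-Alexa647 acceptor), normalized to DMSO and saturating displacer, fit by Morrison-based five-parameter logistic for Kd^app. His-tagged sTNFR1 (1-211) prebound to 100 nM biotinylated peptide SEQ ID NO.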

[4] = target: T4, TNFα-induced NF-κB signal transduction pathway (TNFR1 signaling) in THP-1 cells (Homo sapiens, UniProt P19438); experiment: THP-1 Lucia NF-κB reporter cell assay, inhibition of TNFα-induced NF-κB signaling; format: cell-based; conditions: THP-1 NF-κB Lucia reporter cells, 10 ng/mL TNFα, 16-18 h, secreted luciferase; read-out: THP-1 IC50
T4 sequence (P19438 30-455): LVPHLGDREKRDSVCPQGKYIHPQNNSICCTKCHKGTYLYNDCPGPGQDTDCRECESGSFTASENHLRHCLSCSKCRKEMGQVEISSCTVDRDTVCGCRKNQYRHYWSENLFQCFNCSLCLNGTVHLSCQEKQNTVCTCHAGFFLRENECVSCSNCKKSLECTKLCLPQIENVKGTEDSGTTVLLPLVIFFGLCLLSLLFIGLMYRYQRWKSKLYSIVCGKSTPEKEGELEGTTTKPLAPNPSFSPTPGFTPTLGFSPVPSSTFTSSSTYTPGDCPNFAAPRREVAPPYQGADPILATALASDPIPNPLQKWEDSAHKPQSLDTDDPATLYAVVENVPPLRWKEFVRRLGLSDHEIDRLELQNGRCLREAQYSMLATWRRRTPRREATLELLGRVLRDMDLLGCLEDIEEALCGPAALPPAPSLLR
Procedure, shortened: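 THP-1 Lucia NF-κB cells, 20k/well, no selection antibiotics; peptide pre-inc 1 h 37 °C; + recombinant human TNFα 10 ng/mL final; o.n.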

Structure (SMILES) | Kd [1] [nM] | Kd [2] [nM] | Kd [3] [nM] | IC50 [4] [nM]
CCCCC[C@@H]1NC(=O)[C@@H]2CC[C@@H](C2)NC(=O)[C@H]([C@@H](C)c2c[nH]c3c(OC)cccc23)NC(=O)CN(C)C(=O)[C@H](Cc2ccc(C(N)=O)cc2)NC(=O)[C@H](Cc2ccc(C(N)=O)cc2)NC(=O)[C@](C)(CO)NC(=O)[C@H](Cc2c[nH]c3c(C#N)cccc23)NC(=O)[C@H](Cc2ccc(C(=O)O)cc2)NC(=O)[C@H](CC(N)=O)NC(=O)[C@H]2C[C@H](O)CN2C(=O)[C@H](Cc2c[nH]c3ccccc23)NC(=O)[C@H](CC(N)=O)NC(=O)[C@H]([C@@H](C)c2ccncc2)NC1=O [SEQ ID NO. 92] (cyclo([Ahp(2)][4Pal(3S-Me)]NW[dHyp]N[Phe(4-COOH)][Trp(7-CN)][αMeS][Phe(4-CONH2)][Phe(4-CONH2)][Sar][Trp(βS-Me,7-OMe)][X1])) | 0.05 | > 1000 | 0.24 | –
CCCCC[C@@H]1NC(=O)[C@@H]2CC[C@@H](C2)NC(=O)[C@H]([C@@H](C)c2c[nH]c3c(OC)cccc23)NC(=O)CN(C)C(=O)[C@H](Cc2ccc(C(N)=O)cc2)NC(=O)[C@H](Cc2ccc(C(=O)O)cc2)NC(=O)[C@](C)(CO)NC(=O)[C@H](Cc2c[nH]c3c(Cl)c(F)ccc23)NC(=O)[C@H](Cc2ccncc2)NC(=O)[C@H](CC(N)=O)NC(=O)[C@H]2C[C@H](O)CN2C(=O)[C@H](Cc2c[nH]c3ccccc23)NC(=O)[C@@H]2CNCCN2C(=O)[C@H](Cc2ccncc2)NC1=O [SEQ ID NO. 112] (cyclo([4Pal][Pip(4-aza)]W[dHyp]N[4Pal][X34][αMeS][Phe(4-COOH)][Phe(4-CONH2)][Sar][Trp(βS-Me,7-OMe)][X1][Ahp(2)])) | 0.03 | > 1000 | 0.24 | –
CCCC[C@@H]1NC(=O)CSC[C@@H](C(N)=O)NC(=O)[C@H]([C@@H](C)c2c[nH]c3c(OC)cccc23)NC(=O)CN(C)C(=O)[C@H](Cc2ccc(O)cc2)NC(=O)[C@H](Cc2ccc(C(=O)O)cc2)NC(=O)[C@](C)(CO)NC(=O)[C@H](Cc2c[nH]c3c(Cl)cccc23)NC(=O)[C@H](Cc2ccc(C(=O)O)cc2)NC(=O)[C@H](CC(N)=O)NC(=O)[C@H](CCC(=O)O)N(C)C(=O)[C@H](Cc2c[nH]c3ccccc23)NC(=O)[C@H](CO)N(C)C(=O)[C@H](Cc2ccc(C(N)=O)cc2)NC1=O [SEQ ID NO. 123] ({CH2CO}-[Nle][Phe(4-CONH2)][NMeS]W[NMeE]N[Phe(4-COOH)][Trp(7-Cl)][αMeS][Phe(4-COOH)]Y[Sar][Trp(βS-Me,7-OMe)]C-NH2; thioether N-14) | 0.32 | > 1000 | – | 4.1
CCCC[C@@H]1NC(=O)[C@@H]2CC[C@@H](C2)NC(=O)[C@H]([C@@H](C)c2c[nH]c3c(OC)cccc23)NC(=O)CN(C)C(=O)[C@H](Cc2ccc(O)cc2)NC(=O)[C@H](Cc2ccc(NC(N)=O)cc2)NC(=O)[C@](C)(CO)NC(=O)[C@H](Cc2c[nH]c3c(Cl)cccc23)NC(=O)[C@H](Cc2ccncc2)NC(=O)[C@H](CC(N)=O)NC(=O)[C@H](CCC(=O)O)N(C)C(=O)[C@H](Cc2c[nH]c3ccccc23)NC(=O)[C@@H]2CNCCN2C(=O)[C@H](Cc2ccncc2)NC1=O [SEQ ID NO. 127] (cyclo([4Pal][Trp(7-Cl)][αMeS][Phe(4-NHCONH2)]Y[Sar][Trp(βS-Me,7-OMe)][X1][Nle][4Pal][Pip(4-aza)]W[NMeE]N)) | 0.18 | > 1000 | – | 0.8
